For this assay, the system named is P. falciparum 3D7 growth, pLDH absorbance. Nature of the assay: P. falciparum 3D7 growth inhibition, dose response, strain 3D7 (AID 2305).

As usually defined, the IC50 is the point on the concentration scale where inhibition reaches its midpoint. A high value points to a need for much substance.

Compound `CC(C)(C)C1CCc2onc(C(=O)Nc3cc(Cl)ccc3O)c2C1` (stereo unspecified) showed an IC50 of 780 nM.
Then `CNC(=O)C(NC(=O)c1ccccc1C(=O)OC)c1ccccc1` (stereo unspecified), with 560 nM; and `COc1ccc(CNCc2cccc(-c3ccc(-c4nc5ccccc5[nH]4)cc3)c2)cc1`, with 310 nM.
Then `NOCCCCOc1ccc(Cl)cc1`, with 780 nM; and `CCCCN1CCCC[C@H]1[C@@H](O)c1ccnc2ccc(OCC)cc12`, with 770 nM.
Then `COCCNCc1ccc(-c2cccc(CNc3ccc(OC)cc3)c2)cc1`, with 1040 nM; and `CCOc1cc(Cc2cnc(N)nc2N)cc(OCC)c1-n1cccc1`, with 760 nM; and `O=C(/C=C/c1ccc(Cl)c(Cl)c1)NCCCCCN1CCC(NC(=O)Nc2ccccc2Cl)CC1`, with 710 nM.
As to `O=C(Nc1ccc2nc(-c3ccccc3)[nH]c2c1)c1cc(-c2ccc3c(c2)OCCO3)n[nH]1`, the IC50 came to 770 nM.
`O=C(Nc1cccc(Cl)c1N1CCOCC1)C(Cl)(Cl)Cl` registered a 50% inhibitory concentration (IC50) of 980 nM.
Then `CC1CC(C)CN(S(=O)(=O)c2cc(C(=O)Nc3cccc([N+](=O)[O-])c3)ccc2Br)C1` (stereo unspecified), with 900 nM; and `Cn1c(-c2ccccc2)cc2c3c(N)nc(N)nc3ccc21`, with 890 nM.
In turn, `O=C(Nc1ccc(C(F)(F)F)cc1)c1ccc(NCCCN2CCCCCC2)c([N+](=O)[O-])c1` had an IC50 of 320 nM.
For `CC(=O)Nc1ccc(OCCN(CC(F)(F)F)c2ccc(C#N)cc2C(F)(F)F)cc1`, the concentration for half-maximal inhibition (IC50) came to 770 nM.
Consider `Cc1ccc(C(=O)Nc2ccc(C)c(OC3CCN(CCC(C)C)C3)c2)cc1` (stereo unspecified), for which the 50% inhibitory concentration (IC50) was 790 nM.
Turning to `COc1ccc(Cl)cc1NC(=O)Nc1cc(C)nc2ccccc12`, the IC50 came to 290 nM.
Then `N#Cc1ccc2nc(-c3cc(-c4cccc(F)c4)cnc3N)[nH]c2c1`, with 190 nM.
As to `N#Cc1ccc(N2CCN(Cc3cccc(-c4cccc(-c5nc6ccc(C(F)(F)F)cc6[nH]5)c4)c3)CC2)nc1`, the IC50 turned out to be 960 nM.
The compound `CCC(C)NS(=O)(=O)c1ccc2nc(Nc3ccc(C)cc3)n([C@H](C)C(C)(C)C)c2c1` (stereo partly specified) yielded a half-maximal inhibitory concentration (IC50) of 390 nM.
The compound `Cc1ccc(CNC(=O)[C@H](Cc2ccccc2)Nc2cc(C)nc(Nc3ccccc3)n2)cc1` registered an IC50 of 850 nM.
Then `CC[C@H]1CN2CC[C@@H]1C[C@H]2[C@H](O)c1cc(N2CCC(O)CC2)nc2ccc(OC)cc12`, with 170 nM; and `CN1CCN(CCCN(Cc2ccc(-c3cccc(CNCc4ccc5c(c4)OCO5)c3)cc2)C(=O)Nc2ccccc2)CC1`, with 180 nM; and `CC[C@H](C)CNC(=O)c1cncc(-c2cccc(CNCCCc3ccccc3)c2)c1`, with 1170 nM.
`Nc1nc(N)c2c(CCc3ccc4ccccc4c3)cccc2n1`: the IC50 was determined as 690 nM.
In the case of `CN1CC=C(c2c[nH]c3ccc(OCc4ccccc4)cc23)CC1`, the 50% inhibitory concentration (IC50) amounted to 720 nM.
For the compound `NC(=O)c1ccc(C(=O)Nc2cccc(-c3csc(-c4nc5ccccc5[nH]4)c3)c2)cc1`, the 50% inhibitory concentration (IC50) is 350 nM.
The compound `COc1cccc(CNC[C@@H](O)[C@H](Cc2ccccc2)NC(=O)c2cc(NC(C)C)cc(N3CCCCS3(=O)=O)c2)c1` yielded a half-inhibitory concentration (IC50) of 780 nM.
Take `CCOc1ccc2c(NN=Cc3ccc(OC)c(OC)c3)cc(C)nc2c1`: the 50% inhibitory concentration (IC50) is 700 nM.
As for `Oc1cccc(-c2cnc3ccc(NCc4ccc(F)cc4)nn23)c1`, the IC50 amounted to 1080 nM.
In turn, `CC(C)(C)c1cc(N=NC(=O)c2ccncc2)cc(C(C)(C)C)c1O` registered an IC50 of 700 nM.
Turning to `CC[C@H]1CN2CC[C@H]1C[C@H]2[C@H](O)c1ccnc2ccc(OC)cc12`, the concentration for half-maximal inhibition (IC50) was found to be 150 nM.
Compound `O=C(c1ccco1)N1CCN(c2nc(-c3ccc(Cl)cc3)nc3ccccc23)CC1` gave an IC50 of 930 nM.
The result for `COc1cc(NCC(O)CNc2cc(Cl)nc3ccccc23)nc2ccccc12` (stereo unspecified) reads 420 nM.
The result for `Cc1cc(N2CCCC2)nc(Nc2ccc(NC(=O)C(C)(C)C)cc2)n1` reads 1070 nM; that for `Cc1[nH]c2ccccc2c1C1=CCN(CCN2CCOc3c(Br)cccc3C2=O)CC1`, 800 nM; that for `COCC(C)n1c(C)cc(C(=O)CSc2nnc(Nc3ccccc3)s2)c1C` (stereo unspecified), 740 nM.
For `O=S(=O)(NCCN1CCCC1)c1cccc(-c2ccc(CNCc3ccsc3)cc2)c1`, the IC50 is 800 nM.
`O=[N+]([O-])c1ccc(C2=NN(S(=O)(=O)c3c(Cl)cc(Cl)cc3Cl)CCCC2)cc1` showed an IC50 of 130 nM.
`NS(=O)(=O)c1cccc(N=Cc2c(O)[nH]c3ccc(S(=O)(=O)Cc4c(Cl)cccc4Cl)cc23)c1`: the IC50 turned out to be 720 nM.
The result for `CN1CCC[C@H]1COc1ccc(CN2CC[C@H](NC(=O)c3ccc(Cl)c(Cl)c3)C2)c2ccccc12` reads 950 nM; that for `COc1cc2nc(N(C)Cc3cccc(I)c3)nc(N)c2cc1OC`, 860 nM; that for `COc1cc(CNc2ccc(N3CCCC3)cc2)cc(Cl)c1OC`, 700 nM.
`CNCCNCc1cccc(-c2ccc(-c3nc4ccc(C(F)(F)F)cc4[nH]3)s2)c1` displayed a half-inhibitory concentration (IC50) of 820 nM.
The result for `CC1CCN(C(=O)[C@H](Cc2c[nH]c3ccccc23)NS(=O)(=O)c2ccc(Cl)cc2)CC1` reads 670 nM; that for `CCc1c(C(=O)NC2CCC(N3CCC(c4ccccc4OC)CC3)CC2)[nH]c2ccc(OC)cc12` (stereo unspecified), 1110 nM; that for `Cc1ccc(Nc2ccnc(Nc3ccc(C)c(F)c3)n2)cc1O`, 760 nM.
The compound `CCCCCSc1cc(O)c(C(CNC)C(C)C)cc1OC` (stereo unspecified) returned an IC50 of 160 nM.
The result for `Cc1nc(N)nc(N)c1-c1ccc2ccccc2c1` reads 870 nM.
`O=C(Nc1cccc(CN2CCCN(Cc3cccc(O)c3)CC2)c1)c1ccc(-c2ccccc2)cc1`: the IC50 worked out at 640 nM.
The compound `CC(C)CN(Cc1c(O)ccc2[nH]c(-c3ccc(F)cc3F)nc12)CC(C)C` gave an IC50 of 800 nM.
Consider `S=C(Nc1cccc(Cl)c1)NC1CCN(c2ccnc3cc(Cl)ccc23)C1` (stereo unspecified), for which the IC50 worked out at 150 nM.
As for `Cc1[nH]c(C)c(-c2ccc(S(=O)(=O)c3ccc(Cl)cc3)cc2)c(=O)c1Br`, the 50% inhibitory concentration (IC50) is 40 nM.
The result for `CCCN(C(=O)c1ccccc1C)c1nnc(-c2ccccc2C)s1` reads 1110 nM; that for `OC(CN1CCN(Cc2ccccc2)CC1)Cn1c(-c2ccccc2)c(-c2ccccc2)c2ccccc21` (stereo unspecified), 710 nM; that for `CCn1c(-c2nonc2N)nc2c(-c3ccccc3)ncc(OCCCNCCCN3CCOCC3)c21`, 670 nM.
Then `CCOc1ccc2c(NN=Cc3cccc(F)c3)cc(C)nc2c1`, with 710 nM; and `CC(=O)c1cccc(NC(=O)NC2CCN(c3ccnc(Nc4ccc(F)cc4)n3)C2)c1` (stereo unspecified), with 650 nM.
Then `Cc1nc2nc(N)nc(N)c2c(C)c1Cc1ccc(C(N)=O)cc1`, with 530 nM; and `COc1ccc(OC)c([C@H](O)[C@@H](C)NCc2cc(Cl)ccc2O)c1`, with 380 nM; and `CCOc1ccc2nc(C)cc(NN=Cc3ccccc3)c2c1`, with 780 nM.
The compound `Oc1c(C(Nc2nc3ccccc3s2)c2ccc(OC(F)F)cc2)ccc2cccnc12` (stereo unspecified) showed an IC50 of 570 nM.
The result for `Nc1nc(N)c2c(Oc3cccc(Cl)c3)cccc2n1` reads 470 nM.
The compound `Cc1ccccc1C1CCN(C2CCC(NC(=O)c3cncc(-c4ccccc4)c3)CC2)CC1` (stereo unspecified) gave a half-maximal inhibitory concentration (IC50) of 930 nM.
For the compound `COc1cccc(C=CC(=O)NC2CCC(CN3CCC(c4c[nH]c5ccccc45)CC3)CC2)c1OC` (stereo unspecified), the concentration for half-maximal inhibition (IC50) is 740 nM.
On to `CCCCCCNC(=O)C(N)CCCC(N)C(=O)NCCCCCC` (stereo unspecified), for which the IC50 came out at 160 nM.
On to `Fc1ccc2c(NN=Cc3ccc(Cl)cc3)ccnc2c1`, for which the concentration for half-maximal inhibition (IC50) stood at 750 nM.

Values taken from PubChem BioAssay AID2305 (GlaxoSmithKline (GSK), 2010).
